Laboratory results as given in US20190233884A1 (University of Southern California, priority 2016, published 2019).

Test system: patients with refractory metastatic colorectal cancer (mCRC)
Experiment: PFS, OS and disease control in the training (evaluation) cohort of refractory mCRC patients receiving TAS-102 (n=52, Japan), by baseline characteristics, SNP genotype and toxicity
Format: in vivo, human
Conditions: evaluation cohort; for HR OS (95% CI) / HR PFS (95% CI): XRCC3 rs861539 G/A vs G/G (Ref.)
Procedure: All patients underwent the treatment in salvage-line setting. […]
(§1) Genomic DNA was extracted from peripheral whole blood in patients of all cohorts using the QIAmp Kit (Qiagen, Valencia, Calif., USA) according to the manufacturer's protocol (www.qiagen.com). The candidate SNPs were genotyped using PCR-based direct DNA sequence analysis by ABI 3100A Capillary Genetic Analyzer and Sequencing Scanner v1.0 (Applied Biosystems). Amplification of extracted DNA was carried out using both forward and reverse primers for each gene polymorphism as shown in Table 1. […] The investigators analyzing SNPs were blinded to the clinical data of the study patients.
The primary endpoint in this study was progression-free survival (PFS), and the secondary endpoints were overall survival (OS) and disease control rate (DCR). PFS was calculated from the date of starting treatment to the first observation of disease progression or death from any cause. If a patient had no disease progression or death, PFS was censored at the date of last follow up. OS was calculated from the date of starting treatment until the date of death from any cause or the date of the last follow-up, at which point OS was censored. The disease control rate (DCR) was defined as the proportion of patients who achieved a stable disease (SD) or […] according to RECISTv1.1. Chi-square test was used to examine the difference in baseline patient characteristics among the three cohorts. Allelic distribution of all SNPs by ethnicity for deviation from Hardy-Weinberg equilibrium and the allelic frequencies of SNPs were tested using the Chi-square tests with one degree of freedom. The associations between candidate SNPs and disease control, and toxicities were examined using contingency tables and Fisher's exact test. The associations of SNPs with PFS and OS were analysed using Kaplan-Meier curves and the log-rank test. Because the true mode of inheritance of candidate SNPs was not established yet, a codominant or dominant genetic model if appropriate was considered.
All patients underwent the treatment in salvage-line setting. […] In all patients, adverse events were graded according to the Common Terminology Criteria for Adverse Events, version 4.0. […]
as §1, with “tested” for “genotyped”, “Biosystems).” for “Biosystems). Amplification of extracted DNA was carried out using both forward and reverse primers for each gene polymorphism as shown in Table 1.”, “data.” for “data of the study patients.”
The primary endpoint in this study was progression-free survival (PFS), and the secondary endpoints were overall survival (OS) and disease control rate (DCR).

[1] = Adjuvant history No vs Yes, univariate
[2] = Histology Mod-por vs well, univariate
[3] = KRAS Mutant vs Wild type, univariate
[4] = LN metastasis No vs Yes, univariate
[5] = Liver metastasis No vs Yes, univariate
[6] = Lung metastasis No vs Yes, univariate
[7] = Number of metastases >2 vs ≤2, univariate

Substance: Trifluridine/tipiracil [TAS-102]
- PD, patients n (%) (Pin1 rs2233679 T/T): 4 (57%)
- Disease Control Rate SD, patients n (%) (RAD51 rs1801320 G/C): 3 (43%)
- PD, patients n (%) (RAD51 rs1801320 G/C): 4 (57%)
- Disease Control Rate SD, patients n (%) (RAD51 rs1801320 G/G): 12 (31%)
- PD, patients n (%) (RAD51 rs1801320 G/G): 27 (69%)
- Disease Control CR/PR/SD, patients n (%) (XRCC3 rs861539 G/A): 7 (44%)
- Median PFS (95% CI) (XRCC3 rs861539 G/A): 3.8 (1.6, 6.6) months
- OS (XRCC3 rs861539 G/A): 15.6 months
- PD, patients n (%) (XRCC3 rs861539 G/A): 9 (56%)
- HR OS (95% CI) (multivariable): 0.31 (0.09, 1.03)
- HR PFS (95% CI) (multivariable): 0.52 (0.24, 1.11)
- HR OS (95% CI) (univariate): 0.25 (0.08, 0.79)
- HR PFS (95% CI) (univariate): 0.44 (0.21, 0.92)
- Disease Control CR/PR/SD, patients n (%) (XRCC3 rs861539 G/G): 8 (27%)
- Median OS (95% CI) (XRCC3 rs861539 G/G): 6.3 (4.9, 12.4+) months
- Median PFS (95% CI) (XRCC3 rs861539 G/G): 2.3 (1.9, 3.3) months
- OS (XRCC3 rs861539 G/G): 6.3 months
- PD, patients n (%) (XRCC3 rs861539 G/G): 22 (73%)
- Disease Control Rate SD, patients n (%) (p21 rs1059234 Any C): 10 (29%)
- PD, patients n (%) (p21 rs1059234 Any C): 25 (71%)
- Disease Control Rate SD, patients n (%) (p21 rs1059234 C/C): 4 (31%)
- PD, patients n (%) (p21 rs1059234 C/C): 9 (69%)
- Disease Control Rate SD, patients n (%) (p21 rs1059234 T/C): 6 (27%)
- PD, patients n (%) (p21 rs1059234 T/C): 16 (73%)
- Disease Control Rate SD, patients n (%) (p21 rs1059234 T/T): 5 (45%)
- PD, patients n (%) (p21 rs1059234 T/T): 6 (55%)
- Disease Control Rate SD, patients n (%) (p21 rs1801270 A/A): 4 (31%)
- PD, patients n (%) (p21 rs1801270 A/A): 9 (69%)
- Disease Control Rate SD, patients n (%) (p21 rs1801270 A/C): 6 (29%)
- PD, patients n (%) (p21 rs1801270 A/C): 15 (71%)
- Disease Control Rate SD, patients n (%) (p21 rs1801270 Any C): 11 (33%)
- PD, patients n (%) (p21 rs1801270 Any C): 22 (67%)
- Disease Control Rate SD, patients n (%) (p21 rs1801270 C/C): 5 (42%)
- PD, patients n (%) (p21 rs1801270 C/C): 7 (58%)
- Disease Control Rate SD, patients n (%) (p53 rs1042522 Any G): 9 (35%)
- PD, patients n (%) (p53 rs1042522 Any G): 17 (65%)
- Disease Control Rate SD, patients n (%) (p53 rs1042522 C/C): 6 (30%)
- PD, patients n (%) (p53 rs1042522 C/C): 14 (70%)
- Disease Control Rate SD, patients n (%) (p53 rs1042522 G/G): 2 (33%)
- PD, patients n (%) (p53 rs1042522 G/G): 4 (67%)
- HR for OS (ATM rs609429, multivariable adjusted for liver metastases and adjuvant history): 0.24
- HR for OS (ATM rs609429 any G vs C/C, univariate): 0.37
- Overall Survival Median, months (Adjuvant history No): 6.3 months
- Progression-Free Survival Median, months (Adjuvant history No): 2.1 months
- Overall Survival HR [1]: 2.44
- Progression-Free Survival HR [1]: 1.90
- Overall Survival Median, months (Adjuvant history Yes): 8.7 months
- Progression-Free Survival Median, months (Adjuvant history Yes): 3.7 months
- Overall Survival Median, months (Age <61): 8.1 months
- Progression-Free Survival Median, months (Age <61): 2.2 months
- Overall Survival Median, months (Age ≥61): 6.3 months
- Progression-Free Survival Median, months (Age ≥61): 3.0 months
- Overall Survival HR (Age ≥61 vs <61, univariate): 1.30
- Progression-Free Survival HR (Age ≥61 vs <61, univariate): 0.81
- PFS (CHEK2 rs2267130 any C allele): 3.4 months
- HR for PFS (CHEK2 rs2267130 any C vs T/T, univariate): 0.48
- Overall Survival Median, months (Histology Mod-por): 8.7 months
- Progression-Free Survival Median, months (Histology Mod-por): 3.0 months
- Overall Survival HR [2]: 0.52
- Progression-Free Survival HR [2]: 0.94
- Overall Survival Median, months (Histology well): 6.3 months
- Progression-Free Survival Median, months (Histology well): 2.1 months
- Overall Survival Median, months (KRAS Mutant): 8.3 months
- Progression-Free Survival Median, months (KRAS Mutant): 3.3 months
- Overall Survival HR [3]: 0.42
- Progression-Free Survival HR [3]: 0.51
- Overall Survival Median, months (KRAS Wild type): 7.2 months
- Progression-Free Survival Median, months (KRAS Wild type): 2.1 months
- Overall Survival Median, months (LN metastasis No): 7.2 months
- Progression-Free Survival Median, months (LN metastasis No): 2.5 months
- Overall Survival HR [4]: 1.06
- Progression-Free Survival HR [4]: 1.27
- Overall Survival Median, months (LN metastasis Yes): 8.3 months
- Progression-Free Survival Median, months (LN metastasis Yes): 3.0 months
- Overall Survival Median, months (Liver metastasis No): 8.7 months
- Progression-Free Survival Median, months (Liver metastasis No): 4.2 months
- Overall Survival HR [5]: 0.57
- Progression-Free Survival HR [5]: 0.43
- Overall Survival Median, months (Liver metastasis Yes): 7.2 months
- Progression-Free Survival Median, months (Liver metastasis Yes): 2.3 months
- Overall Survival Median, months (Lung metastasis No): 6.3 months
- Progression-Free Survival Median, months (Lung metastasis No): 2.5 months
- Overall Survival HR [6]: 1.44
- Progression-Free Survival HR [6]: 1.19
- Overall Survival Median, months (Lung metastasis Yes): 8.3 months
- Progression-Free Survival Median, months (Lung metastasis Yes): 2.9 months
- Overall Survival Median, months (Number of metastases >2): 8.1 months
- Progression-Free Survival Median, months (Number of metastases >2): 2.9 months
- Overall Survival HR [7]: 1.63
- Progression-Free Survival HR [7]: 1.22
